Converted amounts (≈) assume the structure as drawn.
Test system: vancomycin-resistant enterococci (VRE)
Experiment: MIC, broth micro-dilution (CLSI)
Assay type: cell-based, enterococci (porcine isolates)
[1] = Enterococcus, VRE, S3 Table isolates, absence of FBS

Molecule `CC1(C)S[C@@H]2[C@H](NC(=O)[C@H](N)c3ccccc3)C(=O)N2[C@H]1C(=O)O` [Ampicillin] has an MIC90 (Enterococcus, VRE, 20 isolates) of 2 µg/mL (≈ 5.72 µM), an MIC50 [1] of 1 µg/mL (≈ 2.86 µM) and an MIC90 [1] of 2 µg/mL (≈ 5.72 µM). It also gave an MIC (Enterococcus, VRE, VRE 1 (49 FR), absence of FBS) of 2 µg/mL (≈ 5.72 µM), an MIC (Enterococcus, VRE, VRE 2 (53 FR), absence of FBS) of 1 µg/mL (≈ 2.86 µM) and an MIC (Enterococcus, VRE, VRE 3 (55 FR), absence of FBS) of 1 µg/mL (≈ 2.86 µM). For the same molecule, the MIC (Enterococcus, VRE, VRE 4 (57 FR), absence of FBS) was 1 µg/mL (≈ 2.86 µM), the MIC (Enterococcus, VRE, VRE5 (58 FR), absence of FBS) was 1 µg/mL (≈ 2.86 µM) and the MIC (Enterococcus, VRE, VRE 6 (59 FR), absence of FBS) was 2 µg/mL (≈ 5.72 µM). The MIC (Enterococcus, VRE, VRE 7 (270 G), absence of FBS) was 0.25 µg/mL (≈ 0.715 µM), the MIC (Enterococcus, VRE, VRE 8 (277 G), absence of FBS) was 2 µg/mL (≈ 5.72 µM) and the MIC (Enterococcus, VRE, VRE 9 (61 FR), absence of FBS) was 1 µg/mL (≈ 2.86 µM). It also gave an MIC (Enterococcus, VRE, VRE 10 (62 FR), absence of FBS) of 2 µg/mL (≈ 5.72 µM), an MIC (Enterococcus, VRE, VRE 11 (284 G), absence of FBS) of 2 µg/mL (≈ 5.72 µM) and an MIC (Enterococcus, VRE, VRE 12 (290 G), absence of FBS) of 1 µg/mL (≈ 2.86 µM). It also gave an MIC (Enterococcus, VRE, VRE 13 (251 G), absence of FBS) of 1 µg/mL (≈ 2.86 µM), an MIC (Enterococcus, VRE, VRE 14 (252 G), absence of FBS) of 0.5 µg/mL (≈ 1.43 µM) and an MIC (Enterococcus, VRE, VRE 15 (63 FR), absence of FBS) of 1 µg/mL (≈ 2.86 µM). It also gave an MIC (Enterococcus, VRE, VRE 16 (60 FR), absence of FBS) of 1 µg/mL (≈ 2.86 µM), an MIC (Enterococcus, VRE, VRE 17 (45 FR), absence of FBS) of 2 µg/mL (≈ 5.72 µM) and an MIC (Enterococcus, VRE, VRE 18 (69 W), absence of FBS) of 1 µg/mL (≈ 2.86 µM). For the same molecule, the MIC (Enterococcus, VRE, VRE 19 (70 W), absence of FBS) was 1 µg/mL (≈ 2.86 µM), the MIC (Enterococcus, VRE, VRE 20 (78 W), absence of FBS) was 1 µg/mL (≈ 2.86 µM) and the MIC range (S3 Table isolates, absence of FBS) was 0.25 to 2 µg/mL.
